Experimental data as given in ChEMBL document CHEMBL1201862, “PubChem BioAssay data set” (2004).
Calls of active or inactive are those of the source.

Tests used:
[1] = biological target: Cytochrome P450 3A4 (Homo sapiens, UniProt P08684);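 further: CYP3A4 tested as one member of a cytochrome P450 panel screen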
[2] = biological target: Cytochrome P450 2D6 (Homo sapiens, UniProt P10635);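 further: CYP2D6 member of a cytochrome P450 panel assay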
[3] = biological target: Cytochrome P450 2C9 (Homo sapiens, UniProt P11712)
[4] = biological target: Peroxisome proliferator-activated receptor gamma/Nuclear receptor coactivator 1 (Homo sapiens, UniProt P37231); assay: (§1) TR-FRET dose response biochemical High Throughput Screening assay for agonists of the steroid receptor coactivator 1 (SRC-1) recruitment by the peroxisome proliferator-activated receptor gamma (PPAR gamma): non-selective agonists. [Related pubchem assays (depositor defined):AID1300, AID1808, AID504735, AID631]; format: protein assay
[5] = biological target: Peroxisome proliferator-activated receptor gamma/Nuclear receptor coactivator 3 (Homo sapiens, UniProt P37231); assay: as §1, with “3 (SRC-3)” for “1 (SRC-1)”, “assays: 1301 (Confirmation screen.), 1048 (Primary screen.)]” for “assays (depositor defined):AID1300, AID1808, AID504735, AID631]”; format: functional
[6] = biological target: Peroxisome proliferator-activated receptor gamma/Nuclear receptor coactivator 2 (Homo sapiens, UniProt P37231); assay: TR-FRET dose response biochemical High Throughput Screening assay for agonists of the steroid receptor coactivator 2 (SRC-2) recruitment by the peroxisome proliferator-activated receptor gamma (PPAR gamma): non-selective agonists. [Related pubchem assays: 1297, 1032 ]; format: functional
[7] = biological target: Large T antigen (Simian virus 40, UniProt P03070); format: functional, Betapolyomavirus macacae;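 further: Confirmatory-stage PubChem screen for compounds that inhibit SV40 T antigen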
Sequence of Large T antigen (P03070 whole entry): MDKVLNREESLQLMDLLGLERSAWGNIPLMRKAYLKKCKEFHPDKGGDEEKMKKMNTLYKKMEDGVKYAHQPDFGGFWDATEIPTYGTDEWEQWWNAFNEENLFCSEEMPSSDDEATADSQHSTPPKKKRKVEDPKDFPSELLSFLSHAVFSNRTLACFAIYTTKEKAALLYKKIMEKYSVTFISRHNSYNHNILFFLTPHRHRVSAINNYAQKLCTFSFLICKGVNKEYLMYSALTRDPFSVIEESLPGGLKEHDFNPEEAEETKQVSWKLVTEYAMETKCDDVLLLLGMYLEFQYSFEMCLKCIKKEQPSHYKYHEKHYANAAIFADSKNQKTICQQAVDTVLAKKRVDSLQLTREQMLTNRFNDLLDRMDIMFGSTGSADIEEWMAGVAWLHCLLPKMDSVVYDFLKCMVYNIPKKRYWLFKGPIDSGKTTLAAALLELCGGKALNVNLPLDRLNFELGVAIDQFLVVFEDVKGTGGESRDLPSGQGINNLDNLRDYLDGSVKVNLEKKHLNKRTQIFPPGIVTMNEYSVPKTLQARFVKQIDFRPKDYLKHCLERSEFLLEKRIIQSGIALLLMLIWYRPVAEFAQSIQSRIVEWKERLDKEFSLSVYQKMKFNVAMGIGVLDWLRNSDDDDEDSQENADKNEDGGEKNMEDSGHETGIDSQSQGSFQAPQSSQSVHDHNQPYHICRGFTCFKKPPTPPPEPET

[8] = system: Vero; assay: Vero cell cytotoxicity, cytotoxicity control for flavivirus capping enzyme inhibitors (AID 588742); format: functional; conditions: Chlorocebus sabaeus
[9] = HEp-2 cell cytotoxicity, dose response, cytotoxicity control for RSV inhibitor project, HTS (AID 2410); format: functional; conditions: human respiratory syncytial virus
[10] = inhibitors of firefly luciferase expression or activity, dose response, H4 neuroglioma cells, luminescence (AID 1990); format: functional, cell-based
[11] = Luminescence Cell-Based Dose Response HTS to Identify Inhibitors of 5'UTR Stem-Loop Driven Prion Protein mRNA Translation in H4 Neuroglioblastoma Cells. [Related pubchem assays: 1827 (Project Summary), 1813 (Primary HTS)]; format: functional
[12] = inhibitors of SNCA 5'UTR-driven reporter translation, confirmation, H4 neuroglioma cells, luminescence (AID 1988); format: functional, cell-based
[13] = system: HEK293; assay: inhibitors of LMP1-driven NF-kB reporter, dose response, cell-based, HEK293, luciferase, cherry-pick (AID 588343); format: functional; conditions: Homo sapiens
[14] = A549 cell cytotoxicity, dose response, cytotoxicity control, plate reader, cherry-pick, antagonist series (AID 743412); format: functional, cell-based
[15] = HepG2 cell cytotoxicity, dose response, cytotoxicity control, plate reader, cherry-pick, antagonist series (AID 743416); format: functional, cell-based
[16] = LGR2 antagonists, dose response, cell-based, HEK293, CRE-luciferase reporter, cherry pick, set 2 (AID 743343); format: functional;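 further: transfected cells were stimulated with diluted bursicon conditioned medium after compound addition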
[17] = MC4R antagonists, dose response, counter-screen for LGR2 antagonist project, cell-based, plate reader, cherry pick (AID 743444); format: functional;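 further: transfected HEK 293 cells stimulated with alpha-MSH peptide; potency of inhibitors of the alpha-MSH evoked signal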
[18] = system: HEK293; assay: HEK cell cytotoxicity by LDH release, dose response, cytotoxicity control for IDE activator project, fluorescence, HEK cells (AID 588440); format: functional, cell-based; conditions: Homo sapiens;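 further: cytotoxicity by LDH release measuring loss of membrane integrity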
[19] = system: HEK293; assay: optical interference in Abeta FP readout, dose response, artefact control for IDE activator project, biochemical, fluorescence polarization (AID 588442); format: functional, cell-based; conditions: Homo sapiens
[20] = biological target: T1, Voltage-gated N-type calcium channel alpha-1B subunit/Amyloid beta A4 precursor protein-binding family A member 1 (Homo sapiens, UniProt Q00975+Q02410); format: protein assay
T1 sequence (Q00975 whole entry): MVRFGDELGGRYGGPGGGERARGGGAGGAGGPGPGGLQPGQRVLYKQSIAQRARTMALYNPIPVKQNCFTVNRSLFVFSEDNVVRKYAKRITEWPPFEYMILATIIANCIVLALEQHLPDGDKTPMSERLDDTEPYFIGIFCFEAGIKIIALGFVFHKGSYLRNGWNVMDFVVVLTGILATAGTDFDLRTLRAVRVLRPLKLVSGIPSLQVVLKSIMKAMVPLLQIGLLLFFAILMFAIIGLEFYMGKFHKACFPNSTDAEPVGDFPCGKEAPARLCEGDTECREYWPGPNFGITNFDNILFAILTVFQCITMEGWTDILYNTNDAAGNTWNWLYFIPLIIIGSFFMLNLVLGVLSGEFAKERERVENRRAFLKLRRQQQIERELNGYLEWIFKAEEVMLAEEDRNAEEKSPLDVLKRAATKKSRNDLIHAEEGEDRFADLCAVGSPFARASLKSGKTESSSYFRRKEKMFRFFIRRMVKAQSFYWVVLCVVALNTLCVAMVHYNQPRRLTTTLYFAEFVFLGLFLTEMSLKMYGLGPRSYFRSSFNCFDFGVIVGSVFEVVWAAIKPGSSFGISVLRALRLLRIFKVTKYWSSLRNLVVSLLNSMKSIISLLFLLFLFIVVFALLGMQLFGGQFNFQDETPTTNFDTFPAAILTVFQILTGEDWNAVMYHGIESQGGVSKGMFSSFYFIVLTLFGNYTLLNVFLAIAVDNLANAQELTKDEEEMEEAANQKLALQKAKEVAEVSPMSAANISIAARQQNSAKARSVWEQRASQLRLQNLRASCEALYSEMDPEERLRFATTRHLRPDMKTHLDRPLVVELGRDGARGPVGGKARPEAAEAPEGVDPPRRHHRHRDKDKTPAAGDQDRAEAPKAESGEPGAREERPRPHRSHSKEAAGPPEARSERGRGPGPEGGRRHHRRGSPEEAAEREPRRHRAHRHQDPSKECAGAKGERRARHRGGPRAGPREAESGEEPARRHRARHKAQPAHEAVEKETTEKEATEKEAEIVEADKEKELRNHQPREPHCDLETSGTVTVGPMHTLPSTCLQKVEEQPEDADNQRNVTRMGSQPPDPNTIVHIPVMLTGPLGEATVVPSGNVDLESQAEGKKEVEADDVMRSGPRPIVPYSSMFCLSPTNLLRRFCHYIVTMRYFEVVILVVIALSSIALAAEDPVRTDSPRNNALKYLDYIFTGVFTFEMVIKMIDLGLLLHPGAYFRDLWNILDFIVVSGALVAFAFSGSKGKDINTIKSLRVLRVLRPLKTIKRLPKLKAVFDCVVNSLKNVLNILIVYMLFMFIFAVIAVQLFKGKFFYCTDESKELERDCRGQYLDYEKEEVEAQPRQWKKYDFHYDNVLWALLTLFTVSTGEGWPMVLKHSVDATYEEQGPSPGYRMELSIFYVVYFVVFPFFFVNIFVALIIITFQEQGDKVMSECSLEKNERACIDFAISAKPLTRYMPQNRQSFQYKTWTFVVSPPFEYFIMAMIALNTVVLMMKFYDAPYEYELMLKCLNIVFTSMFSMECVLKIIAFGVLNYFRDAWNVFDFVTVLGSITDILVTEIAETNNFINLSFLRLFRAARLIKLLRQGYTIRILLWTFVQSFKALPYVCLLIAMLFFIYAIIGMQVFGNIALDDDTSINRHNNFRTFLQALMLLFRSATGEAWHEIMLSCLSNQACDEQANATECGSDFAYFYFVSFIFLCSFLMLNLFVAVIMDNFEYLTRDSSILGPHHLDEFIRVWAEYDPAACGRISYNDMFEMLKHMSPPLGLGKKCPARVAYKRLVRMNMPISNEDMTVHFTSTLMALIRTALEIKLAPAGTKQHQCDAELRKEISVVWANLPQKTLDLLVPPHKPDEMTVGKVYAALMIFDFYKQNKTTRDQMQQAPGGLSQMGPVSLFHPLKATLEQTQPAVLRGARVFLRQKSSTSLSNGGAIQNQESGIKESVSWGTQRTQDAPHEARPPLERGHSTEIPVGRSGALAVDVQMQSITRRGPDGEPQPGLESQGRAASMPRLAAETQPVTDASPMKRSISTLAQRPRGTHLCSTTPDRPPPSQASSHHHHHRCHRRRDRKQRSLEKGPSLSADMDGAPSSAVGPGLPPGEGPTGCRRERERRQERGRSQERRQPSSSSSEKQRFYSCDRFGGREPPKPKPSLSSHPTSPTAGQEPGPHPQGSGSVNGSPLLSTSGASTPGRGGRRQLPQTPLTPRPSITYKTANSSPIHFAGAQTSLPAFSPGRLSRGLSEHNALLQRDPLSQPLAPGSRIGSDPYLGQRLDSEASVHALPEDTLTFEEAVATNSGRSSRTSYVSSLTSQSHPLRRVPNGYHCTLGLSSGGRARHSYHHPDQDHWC
T1 sequence (Q02410 whole entry): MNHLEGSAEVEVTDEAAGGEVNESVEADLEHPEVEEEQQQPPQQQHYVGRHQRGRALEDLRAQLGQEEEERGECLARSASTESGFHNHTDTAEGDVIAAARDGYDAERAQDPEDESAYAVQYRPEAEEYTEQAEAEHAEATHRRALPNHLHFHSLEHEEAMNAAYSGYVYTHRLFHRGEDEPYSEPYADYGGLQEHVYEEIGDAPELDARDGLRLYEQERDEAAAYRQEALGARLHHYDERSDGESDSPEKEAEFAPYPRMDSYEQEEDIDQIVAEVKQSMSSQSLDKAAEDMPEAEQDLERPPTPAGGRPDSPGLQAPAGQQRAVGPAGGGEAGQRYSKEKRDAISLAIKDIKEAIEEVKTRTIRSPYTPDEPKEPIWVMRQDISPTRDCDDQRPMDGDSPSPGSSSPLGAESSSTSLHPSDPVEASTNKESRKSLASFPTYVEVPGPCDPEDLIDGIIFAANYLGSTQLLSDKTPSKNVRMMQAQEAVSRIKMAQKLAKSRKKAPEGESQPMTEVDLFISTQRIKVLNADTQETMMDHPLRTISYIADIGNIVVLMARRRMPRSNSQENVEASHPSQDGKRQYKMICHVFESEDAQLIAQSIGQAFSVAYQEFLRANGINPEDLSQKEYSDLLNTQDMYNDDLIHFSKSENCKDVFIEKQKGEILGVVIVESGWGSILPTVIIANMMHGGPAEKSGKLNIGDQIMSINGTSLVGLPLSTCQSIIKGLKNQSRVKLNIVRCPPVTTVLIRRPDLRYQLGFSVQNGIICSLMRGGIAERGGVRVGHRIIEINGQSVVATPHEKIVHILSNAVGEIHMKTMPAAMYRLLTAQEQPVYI

[21] = biological target: T1, Voltage-gated N-type calcium channel alpha-1B subunit/Amyloid beta A4 precursor protein-binding family A member 1; format: protein assay; remark: listed apart in the source
[22] = Shn3 3'UTR reporter inhibitors, dose response, cell-based, Clone20 osteoblasts, firefly luciferase, cherry-picked (AID 624132); format: functional;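 further: firefly luciferase luminescence from reporter carrying the Shn3 3'UTR in osteoblasts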
[23] = biological target: 26S proteasome non-ATPase regulatory subunit 14 (Homo sapiens, UniProt O00487); assay: inhibition of proteasome subunit RPN11 – biochemical, fluorescence polarization, uHTS hits, confirmation (AID 602368); format: functional
[24] = HepG2 cell cytotoxicity, dose response, cytotoxicity control for Shn3 inhibitor project, CellTiter-Glo, cherry-picked (AID 624134); format: functional, cell-based
[25] = control 3'UTR Renilla luciferase suppression, dose response, counter-screen for Shn3 inhibitor project, cell-based, Clone20-Shn3RL, cherry-picked (AID 624133); format: functional
[26] = biological target: 72 kDa type IV collagenase (Homo sapiens, UniProt P08253); assay: Dose Response validation of uHTS RPN11 inhibitor hits using a MMP-2 Fluorescence assay.; format: functional
[27] = biological target: Prothrombin (Bos taurus, UniProt P00735); assay: thrombin inhibition, dose response, biochemical, fluorescence polarization, uHTS hits (AID 602369); format: functional
[28] = system: Streptococcus sp. 'group A'; assay: growth inhibition of control SK(-) GAS strain, dose response, counter-screen for streptokinase expression inhibitor project, luminescence, kanamycin, BacTiterGlo, confirmation (AID 1900); format: functional, organism-based
[29] = biological target: T2, Streptokinase A (Streptococcus pyogenes serotype M1, UniProt P10520); assay: S. pyogenes streptokinase expression inhibitors, potency, dose response, plasminogen activation absorbance, OD405 (AID 1914); format: functional, Streptococcus pyogenes M1 GAS;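 further: secreted streptokinase activity via plasminogen activation per viability signal from cell pellet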
T2 sequence (P10520 whole entry): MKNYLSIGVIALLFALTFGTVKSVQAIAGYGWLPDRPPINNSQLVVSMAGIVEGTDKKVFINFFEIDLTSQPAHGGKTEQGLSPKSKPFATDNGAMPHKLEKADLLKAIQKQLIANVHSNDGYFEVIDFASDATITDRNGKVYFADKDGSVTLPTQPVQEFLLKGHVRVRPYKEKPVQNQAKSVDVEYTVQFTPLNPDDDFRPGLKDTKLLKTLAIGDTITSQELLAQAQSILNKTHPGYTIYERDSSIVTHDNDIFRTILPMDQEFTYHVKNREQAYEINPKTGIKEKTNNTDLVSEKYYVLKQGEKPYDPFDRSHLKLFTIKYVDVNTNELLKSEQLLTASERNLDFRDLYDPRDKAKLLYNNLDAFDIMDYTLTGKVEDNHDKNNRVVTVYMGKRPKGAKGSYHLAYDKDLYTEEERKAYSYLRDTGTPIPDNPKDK

[30] = system: Streptococcus; assay: Group A Streptococcus viability loss, dose response, counter-screen for streptokinase expression inhibitor project, luminescence, BacTiterGlo (AID 1915); format: functional, organism-based;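 further: potency for reduction of bacterial viability or growth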
[31] = biological target: T3, Endoribonuclease toxin MazF (Escherichia coli K-12, UniProt P0AE70); assay: MazF toxin RNase activators, dose response, biochemical, fluorescence, single-stranded RNA substrate, uHTS hits (AID 588481); format: functional
T3 sequence (P0AE70 whole entry): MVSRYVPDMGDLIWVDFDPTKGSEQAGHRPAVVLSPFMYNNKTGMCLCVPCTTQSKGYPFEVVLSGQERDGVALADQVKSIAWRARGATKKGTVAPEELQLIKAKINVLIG

[32] = biological target: T3, Endoribonuclease toxin MazF; assay: fluorescent RNA oligo signal without MazF, dose response, counter-screen for MazEF activator project, biochemical, fluorescence, single-stranded RNase substrate (AID 588502); format: functional

Sequence of Cytochrome P450 2D6 (P10635 whole entry): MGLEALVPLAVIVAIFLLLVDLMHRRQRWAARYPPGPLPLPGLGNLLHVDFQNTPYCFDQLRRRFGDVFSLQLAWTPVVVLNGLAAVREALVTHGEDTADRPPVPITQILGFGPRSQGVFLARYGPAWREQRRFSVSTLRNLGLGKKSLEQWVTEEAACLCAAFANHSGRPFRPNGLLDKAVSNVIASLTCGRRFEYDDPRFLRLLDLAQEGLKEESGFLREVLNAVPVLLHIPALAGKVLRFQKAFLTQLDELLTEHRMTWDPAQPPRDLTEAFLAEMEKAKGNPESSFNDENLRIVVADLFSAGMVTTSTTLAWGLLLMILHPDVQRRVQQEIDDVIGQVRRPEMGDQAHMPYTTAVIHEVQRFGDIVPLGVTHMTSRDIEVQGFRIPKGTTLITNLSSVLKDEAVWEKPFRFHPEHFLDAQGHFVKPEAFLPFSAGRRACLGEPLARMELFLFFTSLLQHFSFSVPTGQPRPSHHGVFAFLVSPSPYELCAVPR
Sequence of Cytochrome P450 3A4 (P08684 whole entry): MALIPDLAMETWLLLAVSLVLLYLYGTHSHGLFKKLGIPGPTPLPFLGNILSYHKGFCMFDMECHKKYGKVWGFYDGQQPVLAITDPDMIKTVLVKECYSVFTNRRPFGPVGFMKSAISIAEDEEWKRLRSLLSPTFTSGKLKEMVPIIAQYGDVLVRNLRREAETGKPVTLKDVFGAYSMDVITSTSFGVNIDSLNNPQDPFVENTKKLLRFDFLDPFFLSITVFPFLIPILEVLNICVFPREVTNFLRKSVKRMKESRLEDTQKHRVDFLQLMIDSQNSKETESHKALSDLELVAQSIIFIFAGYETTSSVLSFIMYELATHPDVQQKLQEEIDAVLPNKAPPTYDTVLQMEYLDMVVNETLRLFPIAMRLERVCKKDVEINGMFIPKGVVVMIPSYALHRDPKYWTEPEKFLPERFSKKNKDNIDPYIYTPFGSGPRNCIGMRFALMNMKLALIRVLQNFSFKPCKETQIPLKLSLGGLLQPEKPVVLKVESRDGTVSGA

## O=C(NCc1ccccn1)c1cc(-c2ccccc2Cl)on1
[1]
  AC50: 15.8 µM (inconclusive)
[2]
  AC50: inconclusive
[3]
  AC50: inconclusive

## CCOC(=O)N1CCC(NC(=O)CSc2cc(=O)n(C)c3ccccc23)CC1
[4]
  EC50: > 79.4 µM (inactive)
[5]
  EC50: > 79.4 µM (not active)
[6]
  EC50: > 79.4 µM (not active)

## Oc1ccc(NCc2cccs2)cc1
[7]
  IC50: 28.7 µM (active)
[8]
  CC50: > 40 µM (active)

## COc1ccc(NC(=O)N2CC[C@@]3(CCCN(C(=O)c4cnccn4)C3)C2)cc1
[1]
  AC50: 3.16 µM (inconclusive)
[2]
  AC50: inconclusive

## c1ccc(-n2nnc3c(N4CCOCC4)ncnc32)cc1
[9]
  CC50: 23.6 µM (active)
[10]
  EC50: 6.29 µM (inconclusive)
[11]
  EC50: 8.24 µM (active)
[12]
  EC50: 7.18 µM (inconclusive)
[13]
  AC50: 2.47 µM (active)
[14]
  AC50: > 52 µM (inactive)
[15]
  AC50: > 52 µM (inactive)
[16]
  AC50: 7.67 µM (active)
[17]
  AC50: 8.39 µM (active)

## Cc1[nH]c(O)nc1C(=O)CCCCC(=O)O
[18]
  IC50: > 89.3 µM (inactive)
[19]
  EC50: 22.6 µM (inactive)

## CC1=C(C(=O)O)N2C(=O)[C@@H](NC(=O)CCCC(=O)O)[C@H]2SC1
[20]
  IC50: 34 µM (active)
[21]
  IC50: > 50 µM (inactive)

## CCc1ccc(NC(=O)C2CCN(S(=O)(=O)c3ccc4c(c3)NC(=O)C(C)S4)CC2)cc1 (stereo not given)
[22]
  AC50: 7.08 µM (active)
[23]
  IC50: 31.8 µM (active)
[24]
  AC50: 6.54 µM (active)
[25]
  AC50: 6 µM (active)
[26]
  IC50: > 100 µM (inactive)
[27]
  IC50: 42 µM (active)

## Cc1ccc(/C=C/C(=O)C2C(=O)c3ccccc3C2=O)cc1
[28]
  EC50: 1.95 µM (active)
[29]
  EC50: > 150 µM (not active)
[30]
  EC50: 9.64 µM (active)
[13]
  AC50: 4.18 µM (active)

## COC(=O)CSc1nc2cc(C)ccc2cc1C#N
[31]
  EC50: > 99 µM (inactive)
[32]
  EC50: > 99 µM (inactive)
